Measurements: patent publication US5441944A, “Substituted cyclodextrin sulfates and their uses as growth modulating agents” (The Trustees of the University of Pennsylvania, priority 1992, dated 1995)

Tests used:
[1] = test system: tumor angiogenesis in rabbit corneas; details: Gross et al. 1981; cited from earlier work
[2] = test system: tumor angiogenesis in hamster cheek pouches; details: Shubik et al. 1976, cited from earlier work
[3] = test system: capillary growth; tumors; details: cited from earlier work
[4] = dye staining analysis for high density sulfate saccharides (Alcian Blue, alumina TLC plate); type: physicochemical; details: 0.8 mg/ml sample, 1 μl spot; 0.5 mg/ml Alcian Blue, 0.25M acetate buffer, 5.6 pH
Method: Such complexing behavior has been utilized in histology, for selective staining to indicate high sulfur natural saccharides such as heparin (Snow et al., 1987, Human Pathology 18:506-510 and Dorling, 1969, Med. Lab. Techn. 26:124-130).
The following procedure was used to detect the presence of high density sulfate groups. An alumina TLC plate (Analtech, Newark, Del.) was spotted with a drop (1 μl) of a sample (0.8 mg/ml) to be tested. The spot or spots were dried for 10 minutes at about 60° C. Aqueous solution of 0.5 mg/ml of Alcian Blue (8GX, Aldrich), buffered with 0.25M acetate buffer at 5.6 pH is allowed to rise along the plate up to and past the test spot.

[5] = conductivity measurements in deionized water; type: physicochemical
Description: Conductivity is an accepted method for measuring the degree of ionic substitution and can be used to evidence the addition of a charged group, such as sulfate to a compound. […] Results of conducting measurements obtained in deionized water having a background conductivity of 2.5 (±0.2)×[…] mho/cm are shown in Table I.

[6] = type: physicochemical; details: water
Method: The substituted CD sulfates useful in the present invention are highly hydrophilic and therefore very water soluble, with a solubility of at least 20 gm/100 ml in water at 0° C. Without wishing to be bound by theory, we believe that a highly hydrophilic character is important to allow interaction with cellular surfaces. We also believe a very high water solubility of the derivative is an important factor which cooperatively interacts with the inherent complexing ability of the CD structure to provide effective inhibition of angiogenesis with an exogenous steroid, as provided by this invention. We believe that the hydrophilic activity is roughly indicated by the affinity to water, as measured by water solubility. It is important to measure the same at 0° C. since at higher temperatures the most suitable derivatives have solubilities so high that it is difficult to obtain meaningful measurements.

C[C@]12CC[C@@H]3c4ccc(O)cc4CC[C@H]3[C@@H]1CC[C@@H]2O [estradiol]
inhibition of tumor angiogenesis [1]: ineffective

C[C@H]1C[C@@H]2[C@H]([C@@H](O)C[C@@]3(C)[C@H]2CC[C@]3(O)C(=O)CO)[C@@]2(C)C=CC(=O)C=C12 [6 α-methyl prednisolone]
tumor growth [2]: tumor growth was not stopped | suppression of tumor angiogenesis ([2]; under certain conditions): partially suppressed tumor angiogenesis

C[C@]12CCC(=O)C=C1CC[C@@H]1[C@@H]2C(=O)C[C@@]2(C)[C@H]1CC[C@]2(O)C(=O)CO [cortisone, 17 alpha, 21-dihydroxy-4-pregene-3,11,20-trione]
inhibition of tumor angiogenesis [1]: to a lesser extent cortisone, inhibited tumor angiogenesis | inhibition of capillary growth ([3]; cortisone by itself): does not have the ability to inhibit capillary growth | tumor growth ([3]; large amounts of cortisone, many other publications): continued growth of tumors

β-cyclodextrin tetradecasulfate
Alcian Blue stain [4]: generate an Alcian Blue stain | Conductivity (average of 2 samples) ([5]; average of 2 samples): 4.6 10^-4 mho/cm per mg/ml

C[C@@H]1C[C@H]2[C@@H]3CCC4=CC(=O)C=C[C@]4(C)[C@@]3(F)[C@@H](O)C[C@]2(C)[C@@]1(O)C(=O)CO [dexamethasone]
inhibition of tumor angiogenesis [1]: inhibited tumor angiogenesis

n-tetrapropoxy-β-cyclodextrin sulfate
solubility [6]: 37 gm/100 ml H2O | Alcian Blue stain [4]: generate an Alcian Blue stain | Conductivity [5]: 4.5 10^-4 mho/cm per mg/ml

OC[C@H]1O[C@@H]2O[C@H]3[C@H](O)[C@@H](O)[C@@H](O[C@H]4[C@H](O)[C@@H](O)[C@@H](O[C@H]5[C@H](O)[C@@H](O)[C@@H](O[C@H]6[C@H](O)[C@@H](O)[C@@H](O[C@H]7[C@H](O)[C@@H](O)[C@@H](O[C@H]8[C@H](O)[C@@H](O)[C@@H](O[C@H]1[C@H](O)[C@H]2O)O[C@@H]8CO)O[C@@H]7CO)O[C@@H]6CO)O[C@@H]5CO)O[C@@H]4CO)O[C@@H]3CO [β-cyclodextrin]
Conductivity [5]: immeasurable

CC(=O)[C@@]1(O)CC[C@H]2[C@@H]3C[C@H](C)C4=CC(=O)CC[C@]4(C)[C@H]3CC[C@@]21C [medroxyprogestrone]
inhibition of tumor angiogenesis [1]: inhibited tumor angiogenesis

C[C@]12CC[C@H]3[C@@H](CCC4=CC(=O)CC[C@@]43C)[C@@H]1CC[C@@H]2O [testosterone]
inhibition of tumor angiogenesis [1]: ineffective

n-tetrapropoxy-β-cyclodextrin [n-tetrapropoxy β-cyclodextrin]
Conductivity [5]: immeasurable
